Measurements as given in ChEMBL document CHEMBL1151406, “An investigation of the antiviral activity of Podophyllum peltatum” (J Nat Prod, 1982).

Key:
[1] = test system: Vero; assay: Cytotoxicity against african green monkey Vero cells assessed as cell rounding at 1 uM; assay type: cell-based; conditions: chlorocebus sabaeus
[2] = Cytotoxicity against african green monkey Vero cells assessed as cell viability at 1 uM by trypan blue exclusion assay; assay type: cell-based; conditions: chlorocebus sabaeus, read-out: Activity
[3] = test system: Measles morbillivirus; assay: Antiviral activity against measles virus infected in african green monkey Vero cells assessed as cell rounding at 1 uM; assay type: functional
[4] = test system: Measles morbillivirus; assay: Antiviral activity against measles virus infected in african green monkey Vero cells assessed as inhibition of virus-induced cytopathic effect at 1 uM; assay type: functional; design: scale not given: the % may be the effect or the level left
[5] = test system: Measles morbillivirus; assay: Antiviral activity against measles virus infected in african green monkey Vero cells assessed as plaque formation at 1 uM after 5 days by neutral red assay relative to control; assay type: functional
[6] = test system: Human alphaherpesvirus 1; assay: Antiviral activity against HSV1 infected in african green monkey Vero cells assessed as plaque formation at 1 uM after 4 days by neutral red assay relative to control; assay type: functional

| Structure (SMILES) | Activity [1] [%] | viability at 1 µM [2] [%] | Activity [3] [%] | Activity [4] [%] | Activity [5] [%] | Activity [6] [%] |
| --- | --- | --- | --- | --- | --- | --- |
| COc1cc([C@@H]2c3cc4c(c(O)c3C[C@H]3COC(=O)[C@@H]32)OCO4)cc(OC)c1O | 5 | 91.9 | >95 | 25 | 47.5 | 31.1 |
| COc1cc([C@@H]2c3cc4c(c(O)c3C[C@H]3COC(=O)[C@@H]32)OCO4)cc(OC)c1OC [BETA-PELTATIN A] | 5 | 85.4 | 50 | 100 | 15.1 | 21.7 |
| COc1cc([C@@H]2c3cc4c(cc3[C@H](O)[C@H]3COC(=O)[C@@H]23)OCO4)cc(OC)c1OC [AXL-1717] | 15 | 89.9 | 5 | 100 | 41.5 | 84.4 |
| COc1cc([C@@H]2c3cc4c(cc3C[C@H]3COC(=O)[C@@H]32)OCO4)cc(OC)c1OC [DESOXYPODOPHYLLOTOXIN] | 30 | 90.7 | 50 | 70 | 19.8 | 16.2 |
| COc1cc([C@@H]2c3cc4c(cc3[C@H](O)[C@H]3COC(=O)[C@H]23)OCO4)cc(OC)c1OC [PODOFILOX] | 80 | 91.7 | >95 | 25 | 0.9 | 11.7 |
